Reference: publication PMC4775225, “Bromodomain inhibition of the transcriptional coactivators CBP/EP300 as a therapeutic strategy to target the IRF4 network in multiple myeloma” (eLife, 2016)
Where two headings read alike, the source gives them in different places.

How the values were obtained:
[1] = target: T1, full length BRD4 ZsGreen fusion protein (Homo sapiens, UniProt O60885); experiment: Bromodomain chromatin release assay, BRD4 (U2OS, high content imaging); type: cell-based; settings: 2 hr, n = 2 biological replicates ± SEM, read-out: IC50 (μM), BRD4 chromatin release (EC50)
T1 construct: CBP: CBP-bromodomain/BRD9; BRD4: full length BRD4; expressed in transfected cells
Procedure: As described previously ([Huang et al., 2014]), this assay monitors the compound-dependent release and aggregation of a fusion protein consisting of a bromodomain and the fluorescent protein ZsGreen. For the BRD4 chromatin release assay, U2OS cells capable of inducibly expressing the full-length BRD4 protein in fusion with ZsG were generated using the pLVT3G/ZsGreen-BRD4/TO3G vector and maintained in blasticidin at 15 μg/ml. […] Therefore, the bromodomain (BD) of CBP was cloned into full length BRD9 (replacing the BRD9 BD) in frame with a ZsGreen fluorescent tag (ZsG). U2OS cells capable of inducibly expressing the ZsGreen-CBPBD fusion protein were generated by lentiviral delivery of the pLVT3G/BRD9-ZsG-CBPBD/TO3G vector, which contains both the inducible fusion protein and the tet transactivator. Cells were selected and maintained in the presence of 15 μg/ml blasticidin. 5000 cells/well were seeded in 384-well imaging plates in the presence of 2 μg/ml doxycycline to induce the expression of ZsG-fusion proteins. After 16 hr of incubation with doxycycline, fresh media containing serial dilution of compounds were added to the cells for 2 hr at 37°C. Cells were fixed with 4% paraformaldehyde (PFA) dissolved in PBS for 15 min at room temperature. Images of cells were acquired using ImageXpress Micro (Molecular Devices, Inc.; Sunnyvale, CA) and processed with the Transfluor Module of MetaXpress software. Average pits per cell values were obtained from four adjacent images in each well with two technical replicates for each compound concentration. Dose-response curves were generated by plotting the average pits per cell values at each dose and EC50 values were calculated by a four-parameter non-linear regression model in GraphPad Prism.

[2] = tested on: MYC mRNA; experiment: MYC mRNA expression, qRT-PCR; type: cell-based, human; settings: for IC50: Homo sapiens, read-out: IC50, inhibition of MYC mRNA expression; for log2FC (MYC): 2.5 μM, 6 hr, log2 fold change relative to DMSO
Procedure: Total RNA was prepared with an RNeasy Mini Kit (Qiagen, Inc.; Hilden, Germany) with on column DNAse digestion and submitted to Ocean Ridge Biosciences (Palm Beach Gardens, FL) for sequencing and mapping. The data in RPKM for each gene with compound treatment was compared to DMSO treatment, and log2 fold changes were used for further analysis. Rank ordered gene lists were used for Gene Set Enrichment Analysis ([Subramanian et al., 2005]). RNA preparation, cDNA synthesis, and qRT-PCR were performed as described ([Mertz et al., 2011]). For dose titration experiments, cells in 96 -well plates were lysed in lysis buffer (1% Triton X-100, […] pH 2.5) and used directly for cDNA synthesis and qRT-PCR. Primer sequences can be found in Supplementary file 1.

[3] = tested on: AMO-1; experiment: Viability, resazurin, 6 days; type: cell-based, human; settings: for GI50: Homo sapiens, AMO1, 144 h, AMO-1, myeloma, 6 days
Procedure: (§1) Cells were plated at 5000–10000 cells per well of 96-well plates containing titrations of the compounds as indicated. After incubation, the cells were incubated with 500 μg/ml resazurin (Sigma) in PBS for 2–8 hr, and fluorescence was measured (Ex 530 nm, Em 590 nm). Cell cycle analysis was performed as described previously ([Mertz et al., 2011]). For visualization, DNA content histograms were generated with GraphPad Prism. Dose-response curves were generated by plotting the normalized percent growth, percent sub-G1 and percent increase in G0/G1 at each dose values. GI50 values were determined as the concentration at which viability was 50% of the DMSO value and calculated by a four-parameter non-linear regression model in GraphPad Prism.

[4] = tested on: NCI-H929; experiment: Viability, resazurin, 6 days; type: cell-based, human; settings: for GI50: Homo sapiens, 144 h, NCI-H929, myeloma, 6 days
Procedure: as §1

[5] = tested on: OPM2; experiment: Viability, resazurin, 6 days; type: cell-based, human; settings: for GI50: Homo sapiens, OPM-2, 144 h, OPM2, myeloma, 6 days
Procedure: as §1

[6] = tested on: RPMI-8226; experiment: Viability, resazurin, 6 days; type: cell-based, human; settings: for GI50: Homo sapiens, 144 h, RPMI-8226, myeloma, 6 days
Procedure: as §1

[7] = tested on: LP-1; experiment: Viability, resazurin, 6 days; type: cell-based, human; settings: for GI50: Homo sapiens, 144 h, LP-1, myeloma, 6 days
Procedure: as §1

[8] = tested on: RS4;11; experiment: Viability, resazurin, 6 days; type: cell-based, human; settings: for GI50: Homo sapiens, 144 h, RS4;11, ALL, 6 days
Procedure: as §1

[9] = tested on: KMS28BM; experiment: Viability, resazurin, 6 days; type: cell-based, human; settings: for GI50: Homo sapiens, KMS-28BM, 144 h, myeloma, 6 days
Procedure: as §1

[10] = tested on: KMM-1; experiment: Viability, resazurin, 6 days; type: cell-based, human; settings: for GI50: Homo sapiens, 144 h, KMM-1, myeloma, 6 days
Procedure: as §1

[11] = tested on: K562; experiment: Viability, resazurin, 6 days; type: cell-based; settings: Homo sapiens, 144 h, K562, CML
Procedure: as §1

[12] = tested on: SD-1; experiment: Viability, resazurin, 6 days; type: cell-based; settings: Homo sapiens, 144 h, SD-1, ALL
Procedure: as §1

[13] = tested on: KMS34; experiment: Viability, resazurin, 6 days; type: cell-based; settings: Homo sapiens, KMS-34, 144 h, KMS34, myeloma
Procedure: as §1

[14] = tested on: MV411; experiment: Viability, resazurin, 6 days; type: cell-based; settings: Homo sapiens, MV4-11, 144 h, MV411, AML
Procedure: as §1

[15] = tested on: U266; experiment: Viability, resazurin, 6 days; type: cell-based; settings: Homo sapiens, U-266, 144 h, U266, myeloma
Procedure: as §1

[16] = tested on: ML2; experiment: Viability, resazurin, 6 days; type: cell-based; settings: Homo sapiens, ML-2, 144 h, ML2, AML
Procedure: as §1

[17] = tested on: Molt-16; experiment: Viability, resazurin, 6 days; type: cell-based; settings: Homo sapiens, 144 h, Molt-16, ALL
Procedure: as §1

[18] = tested on: VAL; experiment: Viability, resazurin, 6 days; type: cell-based; settings: Homo sapiens, 144 h, ALL
Procedure: as §1

[19] = tested on: OCI-AML-2; experiment: Viability, resazurin, 6 days; type: cell-based; settings: Homo sapiens, OCI-AML2, 144 h, OCI-AML-2, AML
Procedure: as §1

Compound	EC50 [1]	IC50 ([2]; OPM-2, OPM2, 6 hr)	IC50 ([2]; LP-1, 6 hr)	GI50 [3]	GI50 [4]	GI50 [5]	GI50 [6]	GI50 [7]	GI50 [8]	GI50 [9]	GI50 [10]	GI50 [11]	GI50 [12]	GI50 [13]	GI50 [14]	GI50 [15]	GI50 [16]	GI50 [17]	GI50 [18]	GI50 [19]	also measured
CCC(=O)N1CCOc2c(cc(-c3ccc(OC)c(OC)c3)cc2OC[C@H]2CCCN(C)C2)C1 [I-CBP112]	> 20 µM	6.1 µM	11.3 µM	9.39 µM	3.8 µM	2.82 µM	14.6 µM	1.51 µM	15.6 µM	4.44 µM	> 20 µM	> 20 µM	13.5 µM	2.53 µM	13.1 µM	7.61 µM	> 20 µM	17.6 µM	14.2 µM	9.7 µM	–
COc1ccc(CCc2nc3cc(-c4c(C)noc4C)ccc3n2C[C@H](C)N2CCOCC2)cc1Cl [SGC-CBP30]	18.7 ± 1.2 µM	2.3 µM	2.5 µM	1.8 µM	1.68 µM	1.53 µM	3.44 µM	0.78 µM	9.99 µM	2.17 µM	11.7 µM	8.86 µM	7.28 µM	1.3 µM	3.33 µM	2.63 µM	6.65 µM	7.98 µM	7.54 µM	3.68 µM	log2FC (MYC) ([2]; AMO1): -1.13; log2FC (MYC) ([2]; H929): -1.24; log2FC (MYC) ([2]; KMM1): -0.48; log2FC (MYC) ([2]; KMS28BM): -0.63; log2FC (MYC) ([2]; LP1): -1.07; log2FC (MYC) ([2]; MOLP8): -0.64; log2FC (MYC) ([2]; OPM2): -0.71; log2FC (MYC) ([2]; RPMI8226): -0.49; log2FC (MYC) ([2]; RS411): -0.56; log2GI50 ([3]; AMO1): 0.85; log2GI50 ([4]; H929): 0.75; log2GI50 ([5]; OPM2): 0.61; log2GI50 ([6]; RPMI8226): 1.78; log2GI50 ([7]; LP1): -0.36; log2GI50 ([8]; RS411): 3.32; log2GI50 [9]: 1.12; log2GI50 ([10]; KMM1): 3.54
